Assay results published in the supplement of paper PMC10307832.

Tests used:
Assay in all cases: relative viability (nuclei count vs DMSO), 5 days (fraction); higher = more cells survive
TPCA-1 + Decitabine = compound: C1=CC(=CC=C1C2=CC(=C(S2)NC(=O)N)C(=O)N)F [TPCA-1] + Nc1ncn([C@H]2C[C@H](O)[C@@H](CO)O2)c(=O)n1 [Decitabine] (partner 2 µM)
Outline: (§1)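 For relative viability, nuclei counts in treated wells were divided by those in vehicle wells. Lung cancer cell lines had been pin-tool dosed in 1536-well plates the day after seeding and cultured for 5 days, then fixed and stained in one step (final 0.05% Triton X-100, 1% formaldehyde, 1 ug/ml Hoechst) and imaged at 4×. Doses were one drug alone or a fixed anchor-drug dose plus five library-drug doses (not always all listed) in √10 steps, and values are duplicate-plate medians.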

Lestaurtinib + Foretinib = compound: C[C@]12O[C@H](C[C@]1(O)CO)n1c3ccccc3c3c4c(c5c6ccccc6n2c5c31)CNC4=O [Lestaurtinib] + COc1cc2c(Oc3ccc(NC(=O)C4(C(=O)Nc5ccc(F)cc5)CC4)cc3F)ccnc2cc1OCCCN1CCOCC1 [Foretinib] (partner 0.25 µM)
Outline: as §1

[1] = compound: C1/C(=C\C2=CC=CS2)/C(=O)/C(=C/C3=CC=CS3)/C1 + COc1cccc2cc(-c3nc([C@H]4CC[C@H](C(=O)O)CC4)n4ncnc(N)c34)[nH]c12 [OSI-027] (partner 0.5 µM)
Outline: as §1

[2] = compound: C1/C(=C\C2=CC=CS2)/C(=O)/C(=C/C3=CC=CS3)/C1 + Nc1ncn([C@H]2C[C@H](O)[C@@H](CO)O2)c(=O)n1 [Decitabine] (partner 2 µM)
Outline: as §1

Cell Line	relative viability (TPCA-1 + Decitabine; first compound 0.04 µM)	relative viability (TPCA-1 + Decitabine; first compound 0.1265 µM)	relative viability (TPCA-1 + Decitabine; first compound 0.4 µM)	relative viability (TPCA-1 + Decitabine; first compound 1.265 µM)	relative viability (TPCA-1 + Decitabine; first compound 4 µM)	relative viability (Lestaurtinib + Foretinib; first compound 0.005 µM)	relative viability (Lestaurtinib + Foretinib; first compound 0.01581 µM)	relative viability (Lestaurtinib + Foretinib; first compound 0.05 µM)	relative viability (Lestaurtinib + Foretinib; first compound 0.1581 µM)	relative viability (Lestaurtinib + Foretinib; first compound 0.5 µM)	relative viability ([1]; first compound 0.2 µM)	relative viability ([1]; first compound 0.6325 µM)	relative viability ([1]; first compound 2 µM)	relative viability ([1]; first compound 6.325 µM)	relative viability ([1]; first compound 20 µM)	relative viability ([2]; first compound 0.2 µM)	relative viability ([2]; first compound 0.6325 µM)	relative viability ([2]; first compound 2 µM)	relative viability ([2]; first compound 6.325 µM)	relative viability ([2]; first compound 20 µM)
201T	0.901	0.868	0.889	0.869	0.941	1.13	1.21	1.17	1.14	0.356	0.691	0.753	0.82	0.662	0.69	0.862	0.87	0.826	0.843	0.811
A549	0.219	0.423	0.284	0.182	0.102	1.09	1.07	0.579	0.301	0.169	–	–	–	–	–	0.281	0.295	0.237	0.384	0.229
A-427	0.62	0.535	0.591	0.564	0.504	1.03	1.04	0.668	0.4	0.154	0.481	0.465	0.491	0.445	0.442	0.592	0.586	0.586	0.519	0.583
ABC-1	1.49	1.07	1.16	1.09	1.27	1.04	1.33	0.991	0.962	0.204	0.645	0.583	0.647	0.426	0.498	1.22	1	1.2	0.87	0.972
BEN	0.875	0.625	0.813	0.838	0.387	0.728	0.803	0.478	0.559	0.224	0.258	0.275	0.352	0.288	0.282	0.666	0.724	0.893	0.643	0.644
CAL-12T	–	–	–	–	–	1.25	1.22	1.03	1.13	0.696	0.64	0.886	0.709	0.335	0.547	–	–	–	–	–
COR-L23	0.498	0.394	0.466	0.385	0.403	1.03	0.908	0.8	0.825	0.391	0.804	0.816	0.732	0.709	0.749	0.427	0.411	0.488	0.472	0.417
COR-L 105	0.711	0.622	0.735	0.612	0.537	1.29	1.19	1.27	1.18	0.669	0.679	0.849	0.781	–	0.632	0.526	0.668	0.699	0.444	0.7
Calu-6	–	–	–	–	–	0.868	0.979	0.499	0.482	0.207	–	–	–	–	–	–	–	–	–	–
ChaGo-K-1	0.49	0.453	0.565	0.499	0.321	0.946	1.04	0.828	0.788	0.373	0.549	0.59	0.588	0.491	0.268	0.528	0.394	0.494	0.436	0.242
EBC-1	–	–	–	–	–	0.109	0.105	0.114	0.11	0.112	–	–	–	–	–	–	–	–	–	–
EKVX	0.366	–	0.383	0.316	0.345	0.681	0.752	0.75	0.925	0.656	0.679	0.673	0.717	0.615	0.646	0.359	0.267	0.406	–	0.452
EMC-BAC-2	0.997	0.972	0.939	0.852	0.898	0.908	0.737	0.78	0.382	0.29	0.411	0.383	0.432	0.337	0.389	1	0.968	1.03	0.909	0.924
EPLC-272H	0.458	0.318	0.41	0.372	0.382	0.542	0.538	0.282	0.325	0.126	0.349	0.284	0.285	0.238	0.265	0.379	0.349	0.446	0.282	0.339
H3255	0.71	0.553	0.676	0.513	0.475	0.981	0.888	0.898	0.703	0.419	0.585	0.589	0.541	0.568	0.566	0.81	0.538	0.527	0.55	0.494
HARA	0.576	0.54	0.844	0.462	0.492	0.958	0.856	0.838	0.827	0.126	0.525	0.437	0.502	0.379	0.57	0.755	0.571	0.558	0.529	0.595
HCC-15	0.731	0.546	0.708	0.625	0.374	1.11	1.13	0.989	0.744	0.139	0.769	0.684	0.683	0.548	0.665	0.677	0.688	0.661	0.619	0.609
HCC-44	1.1	0.841	0.908	0.879	0.887	–	–	–	–	–	0.482	0.528	0.649	0.475	0.479	0.946	1	0.881	0.844	0.973
HCC-78	0.788	0.698	0.565	0.711	0.529	0.51	0.494	0.524	0.545	0.308	0.372	0.404	0.431	0.37	0.326	0.653	0.763	0.755	0.714	0.686
